Results taken from PubChem BioAssay (NCI).
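Cultured in 96-well plates, cells were exposed to test compound for 48 hours across five concentrations. The concentration for full growth arrest is given as TGI.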

Assays:
Test in all cases: NCI anticancer screen, dose series, 48 h
SF-295 CNS = tested on: SF-295 CNS
MDA-MB-435 = tested on: MDA-MB-435
HOP-62 NSCLC = tested on: HOP-62 NSCLC
CAKI-1 renal = tested on: CAKI-1 renal
SK-MEL-2 melanoma = tested on: SK-MEL-2 melanoma
786-0 renal = tested on: 786-0 renal
IGROV1 ovarian = tested on: IGROV1 ovarian
OVCAR-8 ovarian = tested on: OVCAR-8 ovarian
A549 NSCLC = tested on: A549 NSCLC
OVCAR-4 ovarian = tested on: OVCAR-4 ovarian
MALME-3M melanoma = tested on: MALME-3M melanoma
SF-268 CNS = tested on: SF-268 CNS
SNB-75 CNS = tested on: SNB-75 CNS
SNB-19 CNS = tested on: SNB-19 CNS
MDA-N = tested on: MDA-N
U251 CNS = tested on: U251 CNS
BT-549 breast = tested on: BT-549 breast
OVCAR-5 ovarian = tested on: OVCAR-5 ovarian
HT29 colon = tested on: HT29 colon
SK-MEL-5 melanoma = tested on: SK-MEL-5 melanoma
UO-31 renal = tested on: UO-31 renal
HCT-15 colon = tested on: HCT-15 colon
NCI-H460 lung = tested on: NCI-H460 lung
M14 melanoma = tested on: M14 melanoma
HCC-2998 colon = tested on: HCC-2998 colon
MOLT-4 leukemia = tested on: MOLT-4 leukemia
SR leukemia = tested on: SR leukemia
EKVX NSCLC = tested on: EKVX NSCLC
MDA-MB-231 breast = tested on: MDA-MB-231 breast
UACC-62 melanoma = tested on: UACC-62 melanoma
HS 578T breast = tested on: HS 578T breast
NCI-H226 lung = tested on: NCI-H226 lung
K-562 leukemia = tested on: K-562 leukemia
NCI-H522 lung = tested on: NCI-H522 lung
MCF7 breast = tested on: MCF7 breast
SN12C renal = tested on: SN12C renal
SK-MEL-28 melanoma = tested on: SK-MEL-28 melanoma
SF-539 CNS = tested on: SF-539 CNS
T-47D breast = tested on: T-47D breast
LOX IMVI melanoma = tested on: LOX IMVI melanoma
SK-OV-3 ovarian = tested on: SK-OV-3 ovarian
ACHN renal = tested on: ACHN renal
COLO 205 colon = tested on: COLO 205 colon
HOP-92 NSCLC = tested on: HOP-92 NSCLC
KM12 colon = tested on: KM12 colon
NCI-H23 lung = tested on: NCI-H23 lung
NCI/ADR-RES ovarian = tested on: NCI/ADR-RES ovarian
HCT-116 colon = tested on: HCT-116 colon
PC-3 prostate = tested on: PC-3 prostate
UACC-257 melanoma = tested on: UACC-257 melanoma
SW-620 colon = tested on: SW-620 colon
TK-10 renal = tested on: TK-10 renal
RXF 393 renal = tested on: RXF 393 renal
RPMI-8226 leukemia = tested on: RPMI-8226 leukemia
CCRF-CEM leukemia = tested on: CCRF-CEM leukemia
OVCAR-3 ovarian = tested on: OVCAR-3 ovarian
A498 renal = tested on: A498 renal
HL-60(TB) leukemia = tested on: HL-60(TB) leukemia
DU-145 prostate = tested on: DU-145 prostate

With C=CCOC(=O)C[C@H](NC(=O)[C@H](Cc1ccc(O)cc1)NCC(F)(F)F)C(=O)OCC=C the TGI (SF-295 CNS) was > 100 µM, the TGI (MDA-MB-435) was > 100 µM and the TGI (HOP-62 NSCLC) was > 100 µM. For the same molecule, the TGI (CAKI-1 renal) was > 100 µM, the TGI (SK-MEL-2 melanoma) was 46.1 µM and the TGI (786-0 renal) was > 100 µM. The TGI (IGROV1 ovarian) was > 100 µM, the TGI (OVCAR-8 ovarian) was > 100 µM and the TGI (A549 NSCLC) was > 100 µM. The TGI (OVCAR-4 ovarian) was > 100 µM, the TGI (MALME-3M melanoma) was 52.7 µM and the TGI (SF-268 CNS) was > 100 µM. For the same molecule, the TGI (SNB-75 CNS) was > 100 µM, the TGI (SNB-19 CNS) was > 100 µM and the TGI (MDA-N) was > 100 µM. The TGI (U251 CNS) was > 100 µM, the TGI (BT-549 breast) was > 100 µM and the TGI (OVCAR-5 ovarian) was > 100 µM. For the same molecule, the TGI (HT29 colon) was > 100 µM, the TGI (SK-MEL-5 melanoma) was 97.5 µM and the TGI (UO-31 renal) was > 100 µM. The TGI (HCT-15 colon) was > 100 µM, the TGI (NCI-H460 lung) was > 100 µM and the TGI (M14 melanoma) was > 100 µM. For the same molecule, the TGI (HCC-2998 colon) was > 100 µM, the TGI (MOLT-4 leukemia) was 60.1 µM and the TGI (SR leukemia) was > 100 µM. The TGI (EKVX NSCLC) was > 100 µM, the TGI (MDA-MB-231 breast) was > 100 µM and the TGI (UACC-62 melanoma) was > 100 µM. The TGI (HS 578T breast) was > 100 µM, the TGI (NCI-H226 lung) was > 100 µM and the TGI (K-562 leukemia) was > 100 µM. The TGI (NCI-H522 lung) was 68.9 µM, the TGI (MCF7 breast) was > 100 µM and the TGI (SN12C renal) was > 100 µM. The TGI (SK-MEL-28 melanoma) was 44.5 µM, the TGI (SF-539 CNS) was > 100 µM and the TGI (T-47D breast) was 58.1 µM. For the same molecule, the TGI (LOX IMVI melanoma) was > 100 µM, the TGI (SK-OV-3 ovarian) was > 100 µM and the TGI (ACHN renal) was > 100 µM. For the same molecule, the TGI (COLO 205 colon) was > 100 µM, the TGI (HOP-92 NSCLC) was > 100 µM and the TGI (KM12 colon) was > 100 µM. For the same molecule, the TGI (NCI-H23 lung) was > 100 µM, the TGI (NCI/ADR-RES ovarian) was > 100 µM and the TGI (HCT-116 colon) was > 100 µM. For the same molecule, the TGI (PC-3 prostate) was > 100 µM, the TGI (UACC-257 melanoma) was 44.2 µM and the TGI (SW-620 colon) was > 100 µM. The TGI (TK-10 renal) was > 100 µM, the TGI (RXF 393 renal) was > 100 µM and the TGI (RPMI-8226 leukemia) was > 100 µM.
CCN(CC)CCCNc1[nH]ncc2cc3c(nc4ccccc43)c(C)c12 showed a TGI (SF-295 CNS) of 32.2 µM, a TGI (MDA-MB-435) of 36.1 µM and a TGI (HOP-62 NSCLC) of 42.2 µM. For the same molecule, the TGI (CAKI-1 renal) was > 100 µM, the TGI (SK-MEL-2 melanoma) was > 100 µM and the TGI (786-0 renal) was 17.3 µM. The TGI (IGROV1 ovarian) was 15.7 µM, the TGI (OVCAR-8 ovarian) was 24.5 µM and the TGI (A549 NSCLC) was 26.7 µM. The TGI (MALME-3M melanoma) was 31.4 µM, the TGI (SF-268 CNS) was 20.6 µM and the TGI (SNB-75 CNS) was 26.4 µM. It also gave a TGI (SNB-19 CNS) of 27.5 µM, a TGI (MDA-N) of 30.8 µM and a TGI (U251 CNS) of 24.4 µM. The TGI (BT-549 breast) was 32.7 µM, the TGI (OVCAR-5 ovarian) was 50.4 µM and the TGI (HT29 colon) was 15.8 µM. The TGI (CCRF-CEM leukemia) was 21.3 µM, the TGI (SK-MEL-5 melanoma) was 38 µM and the TGI (UO-31 renal) was 24.5 µM. The TGI (HCT-15 colon) was 30 µM, the TGI (NCI-H460 lung) was 18.1 µM and the TGI (M14 melanoma) was 52.3 µM. For the same molecule, the TGI (HCC-2998 colon) was 23.2 µM, the TGI (MOLT-4 leukemia) was 5.43 µM and the TGI (OVCAR-3 ovarian) was 28.6 µM. The TGI (EKVX NSCLC) was 23.5 µM, the TGI (MDA-MB-231 breast) was 19.4 µM and the TGI (UACC-62 melanoma) was 29.4 µM. The TGI (HS 578T breast) was 29.2 µM, the TGI (NCI-H226 lung) was 25.3 µM and the TGI (K-562 leukemia) was > 100 µM. It also gave a TGI (NCI-H522 lung) of 16.3 µM, a TGI (A498 renal) of 28.7 µM and a TGI (MCF7 breast) of 38.4 µM. The TGI (SN12C renal) was 19.9 µM, the TGI (SK-MEL-28 melanoma) was 32.5 µM and the TGI (HL-60(TB) leukemia) was 27.1 µM. The TGI (SF-539 CNS) was 34.1 µM, the TGI (T-47D breast) was 29.4 µM and the TGI (LOX IMVI melanoma) was 20.6 µM. It also gave a TGI (SK-OV-3 ovarian) of 34.3 µM, a TGI (ACHN renal) of 21.9 µM and a TGI (COLO 205 colon) of 23.4 µM. For the same molecule, the TGI (KM12 colon) was 18.5 µM, the TGI (NCI-H23 lung) was 28 µM and the TGI (NCI/ADR-RES ovarian) was > 100 µM. It also gave a TGI (HCT-116 colon) of 17.4 µM, a TGI (PC-3 prostate) of 25.5 µM and a TGI (UACC-257 melanoma) of 29.5 µM. For the same molecule, the TGI (SW-620 colon) was 17.4 µM, the TGI (TK-10 renal) was 36.2 µM and the TGI (DU-145 prostate) was 24.3 µM. The TGI (RPMI-8226 leukemia) was 31.3 µM.
